Reference: US20170008888A1 (KYORIN PHARMACEUTICAL CO., LTD., priority 2014, published 2017)
Read-outs that look alike come from different tables or passages of the source.

Legend:
Type in all cases: cell-based
[1] = test system: TLR2 signaling in primary human umbilical vein endothelial cells; test: Cytokine response to TLR2 agonism (Pam3CysK4) in primary HUVEC (ELISA); settings: for IL-8: 5 μM inhibitor
Text: It has been reported in the literature that that ERK5 mediates TLR2-dependent inflammatory signaling in several cell types including human umbilical vein endothelial cells (HUVEC). See Wilhelmsen et al., J Biol Chem. 2012; 287:26478-94. Wilhelmsen et al. further reported that MEK1 negatively regulates TLR2 signaling in HUVECs, with pharmacological inhibition of MEK1 augmenting (IL-6, G-CSF, GM-CSF) or not changing (IL-8) pro-inflammatory cytokine release in response to TLR2 stimulation.
In this example, the following commercially available inhibitors were tested:
The results were compared with test compound 61.
Pooled primary human umbilical vein endothelial cells (HUVEC) were obtained from Lonza (Allendale, N.J.) and maintained in either complete EGM-2 defined media (Lonza) or Medium 200 supplemented with Low Serum Growth Supplement (Life Technologies, Grand Island, N.Y.). Cells at low passage (<5) were seeded at 4e5 cells/ml and allowed to adhere overnight at 37° C. in a humidified atmosphere at 5% CO2. Cells were pre-treated with test compounds for 1 h prior to TLR2 or TLR4 stimulation. To test for the effects of TLR2 agonism, the TLR2 agonist peptide Pam3CysK4 (Santa Cruz Biotechnology, Dallas, Tex.) was used at 10 μg/ml. PHC-SKKK (Enzo Life Sciences, Farmingdale, N.Y.) served as the negative control peptide. To test for the effects of TLR4 agonism, LPS from E. coli 0111:B4 (EMD Millipore, Billerica, Mass.) was used at 100 ng/ml. Cells were incubated for 22 hr, after which the supernatant was collected and analyzed for cytokine concentrations by ELISA (Life Technologies). Absorbance at 450 nm was read using the Wallac 1420 Victor^2 multilabel microplate reader (Perkin Elmer, Waltham, Mass.).

[2] = test system: human fetal lung fibroblasts (HFL-1); test: TGF-β-induced fibrotic response (α-SMA expression) in HFL-1; settings: HFL1, 2 ng/ml TGF-β1, 48 h, Western blot, read-out: Inhibition of α-SMA expression, EC50 (μM), HFL-1
Protocol: Nontransformed, human fetal lung fibroblasts (HFL-1) were obtained from ATCC (Manassas, Va.) and maintained in F12K media containing 10% (v/v) charcoal-dextran treated, heat inactivated FBS (Omega Scientific, Tarzana, Calif.). Primary lung fibroblasts isolated from a patient diagnosed with asthma were obtained from Lonza (Allendale, N.J.) and maintained in FGM-2 fibroblast growth medium (Lonza). Cells were seeded at a density to provide 50-60% confluence after an overnight incubation at 37° C. in a humidified atmosphere at 5% CO2. […] Protein content was determined using the Bio-Rad Dc Protein kit (Bio-Rad Laboratories, Hercules, Calif.), and normalized prior to adding an equal volume of 2× Laemmli sample buffer (Sigma). Proteins in the whole cell lysates were resolved via SDS-PAGE gel electrophoresis, and α-SMA was detected via Western blot analysis using a rabbit anti-human α-SMA polyclonal antibody (Abcam, Cambridge, Mass.). α-SMA signal was normalized to the signal of β-actin as detected using mouse anti-human […] antibody (Cell Signaling Technology). DyLight 680 and 800 conjugated secondary antibodies were used and the infrared signals were detected using the Odyssey Imaging System (LI-COR Biotechnology, Lincoln, Nebr.).

[3] = test system: primary human keratinocytes; test: IL-17A-stimulated cytokine response by primary human keratinocytes; settings: Keratinocyte, 200 ng/ml IL-17A, 48 h
Protocol: Primary human keratinocytes were obtained from Life Technologies (Grand Island, N.Y.) and maintained in growth supplemented Defined Keratinocyte-SFM Medium (Life Technologies). Cells were seeded at 2.5e4 cells/ml onto collagen-coated plates and incubated at 37° C. in a humidified atmosphere at 5% CO2 until the cells reached confluence. Cells were pre-treated with test compounds (10 μM down by ⅕ in a 4-point serial dilution series) for 1 h at 37° C. in a humidified atmosphere at 5% CO2. DMSO at a final concentration of 0.1% served as the non-inhibited control. Cells were then stimulated with 200 ng/ml human recombinant IL-17A (eBioscience, San Diego, Calif.) for 48 h. Supernatant was collected and analyzed for cytokine concentrations using the Human Inflammatory Magnetic 5-Plex Panel from Life Technologies according to the manufacturer's instructions. Magnetic beads were measured on the Bio-Plex MAGPIX multiplex reader instrument using the accompanying xPONENT 4.2 acquisition software (Bio-Rad Laboratories, Hercules, Calif.). Data were analyzed via the Bio-Plex Manager software v6.1 (Bio-Rad Laboratories).

EC50 ([3]; read-out: Inhibition EC50 (μM), GM-CSF) [µM]	EC50 ([3]; read-out: Inhibition EC50 (μM), IL-1β) [µM]	EC50 ([3]; read-out: Inhibition EC50 (μM), IL-6) [µM]	EC50 ([3]; read-out: Inhibition EC50 (μM), IL-8) [µM]	EC50 ([3]; read-out: Inhibition EC50 (μM), TNF-α) [µM]	SMILES	IL-8 ([1]; +10 μg/ml PHC-SKKK (negative control peptide), 22 hr) [pg/mL]	IL-8 ([1]; +10 μg/ml Pam3CysK4, 22 hr) [pg/mL]	IL-8 response to TLR2 (Pam3CysK4) stimulation, in words ([1]; summary of Table 22)	EC50 [2] [µM]
					CCOc1cc(C(=O)N2CCC(N3CCN(C)CC3)CC2)ccc1Nc1cc2c(cn1)N(C)C(=O)c1ccccc1N2C [Compound 61]	0 ± 17	133 ± 9	reduced the IL-8 response	0.75 to 2.3
2.18	0.5	0.35	0.46	1	CCOc1cc(C(=O)N2CC[C@@H](N(C)C)C2)ccc1Nc1cc2c(cn1)N(C)C(=O)c1ccccc1N2C [Compound 115]				
